The nature of series [1]: in vivo. To be noted: rat, iv, 10 mg/kg.
Series [2] has as its system Staphylococcus aureus strain SAU1018. Description: mouse peritonitis infection model (survival, ED50). It is filed as in vivo. Conditions: parent drug control in same test, in 20% aqueous beta-hydroxypropylcyclodextrin (HPCD) formulation, read-out: ED50 (effective dose for survival of 50% of animals).
The conditions of series [3]: pH range of about 3-9.
The nature of series [4]: physchem. To be noted: water or conventional aqueous solutions, thermodynamic from solid.

In brackets after ≈: the same amount, converted by molar mass.

As to `O=C1C=CN(c2c(F)cc(N3C[C@H](CNc4ccon4)OC3=O)c(F)c2F)CC1` [MRX-I], in series [1], the exposure (AUC) was approximately 25400 ng·h/mL. In addition, in series [2], the ED50 amounted to 10 mg/kg. Besides, the “pH dependence of solubility in water” value in series [3] is given as “virtually pH-independent”. In series [4], this molecule came in with a solubility of approximately 250 µg/mL (≈ 612 µM).

Values taken from patent publication US9382276B2, “Water-soluble O-carbonyl phosphoramidate prodrugs for therapeutic administration” (MicuRx Pharmaceuticals, Inc., priority 2014, dated 2016).
